In patent publication US9150530B2, “Esters of 4, 9-dihydroxy-naphtho [2, 3-b] furans for disease therapies” (Zhoushan Haizhongzhou Xinsheng Pharmaceuticals Co., Ltd., priority 2011, dated 2015):

What was measured:
[1] = system: DU-145; assay: Cell viability determination (MTT), DU-145; type: cell-based; details: Homo sapiens, DU-145, prostate cancer, 48 hour incubation, read-out: Drug concentrations for 50% cell viability (IC50)
Source text: (§1) Cell Culture: A549, DLD1, SW480, LOVO, HT-29, Hela, U-20S, MES-SA, SK-MEL-28, Panc-1, DU-145, CNE, U251, Eca-109, MGC80-3, QGY-7701, BEL-7404, PLC/PRF/5, Huh-7, and SGC-7901 cells were maintained in Dulbecco's Modified Eagle Medium (DMEM) (imported from Invitrogen, Carlsbad, Calif., USA) supplemented with 10% fetal bovine serum (FBS) (Si Ji Qing, Hangzhou, China) and 1% penicillin/streptomycin/amphotericin B (imported from Invitrogen, Carlsbad, Calif., USA).
(§2) Cell Viability Determination: Popular MTT method (Archives of Biochemistry and Biophysics, 1993, 303: 474-482) was used to screen the in vitro effects of the invented drugs. Briefly, 5000 to 10000 cells were inoculated per well in a 96-well plate. After overnight incubation, drug was added to the wells at final concentration of 10 μM, […], 2.5 μM, 1.25 μM, or 1 μM, 0.75 μM, 0.5 μM and 0.25 μM in complete culture medium. Each dose level covered 4 equivalent wells. After 48 hour incubation, one tenth volume of 5 mg/mL MTT (thiazolyl blue tetrazolium bromide, Sigma-Aldrich) stock solution was added, and incubation was continued for 2 hours. Then medium was removed and 100 μL of isopropanol solution comprising 86% isopropanol, 4% aqueous 1 N HCl and 10% aqueous SDS solution (10% in concentration) was added. The absorbance of each well at 570 nm wavelength was measured by a micro-plate reader after gentle shaking for 20 minutes. Drug concentrations of 50% cell viability (IC50) were calculated by LOGIT method.

[2] = system: MGC80-3; assay: Cell viability determination (MTT), MGC80-3; type: cell-based; details: Homo sapiens, MGC-803, MGC80-3, stomach cancer, 48 hour incubation, read-out: Drug concentrations for 50% cell viability (IC50)
Source text: as §1, §2

[3] = system: A549; assay: Cell viability determination (MTT), A549; type: cell-based; details: Homo sapiens, A549, lung cancer, 48 hour incubation, read-out: Drug concentrations for 50% cell viability (IC50)
Source text: as §1, §2

[4] = system: LOVO; assay: Cell viability determination (MTT), LOVO; type: cell-based; details: Homo sapiens, colorectal cancer, 48 hour incubation, read-out: Drug concentrations for 50% cell viability (IC50)
Source text: as §1, §2

[5] = system: SK-MEL-28; assay: Cell viability determination (MTT), SK-MEL-28; type: cell-based; details: Homo sapiens, SK-MEL-28, malignant melanoma, 48 hour incubation, read-out: Drug concentrations for 50% cell viability (IC50)
Source text: as §1, §2

[6] = system: QGY-7701; assay: Cell viability determination (MTT), QGY-7701; type: cell-based; details: QGY7701, QGY-7701, liver cancer, 48 hour incubation, read-out: Drug concentrations for 50% cell viability (IC50)
Source text: as §1, §2

[7] = Human plasma incubation, HPLC analysis of degradation products; type: in vitro ADME; details: 20 μM in human plasma, 37° C., 2 hours
Protocol: The compounds of formula I were incubated in human plasma at 37° C. for 2 hours, and then the mixtures were treated with acetonitrile to remove protein and the resulting supernatants were analyzed by HPLC (FIG. 2). […] Without wishing to be bound by a particular theory, it is believed that, although not detected due to instability in a protein-free environment, the direct hydrolysis product of a compound of formula I, 4,9-dihydroxy-naphtho[2,3-b]furan, and its partially oxidized product semihydroquinone (shown in scheme 6) co-exist in vivo and play important biological roles.
HPLC column: Waters Sunfire C18, 250×4.60 mm 5 micron; Mobile phase: buffer A, 90% 5 mM potassium phosphate buffer, pH 6.8, 10% acetonitrile; buffer B, 15% 5 mM potassium phosphate buffer, pH 6.8, 85% acetonitrile; Detector: Waters 2998 Photodiode Array Detector.
Gradient B: 0-3 min, 50% buffer B, 3-5 min, 50%-100% buffer B, 5-18 min, 100% buffer B, 18-22 min, 100%-50% buffer B, 22-25 min, […]; flow rate, 1 ml/min. Analysis of the 4,9-dihydroxy-naphtho[2,3-b]furan compounds (FIG. 1)
10 mM of a compound of formula I or its analog in DMSO (however, compound VI was in DMF) was diluted with human plasma to 20 μM, and the resulting mixtures were incubated at 37° C. for 2 hours. To plasma sample, 9 times volume of acetonitrile was added. The resulting mixtures were vortexed and incubated in dry ice for 30 minutes or in −20° C. freezer for 3 hours, then centrifuged, and supernatant was used for HPLC analysis using gradient B.

[8] = system: MES-SA; assay: Cell viability determination (MTT), MES-SA; type: cell-based; details: Homo sapiens, leiomyosarcoma, 48 hour incubation, read-out: Drug concentrations for 50% cell viability (IC50)
Source text: as §1, §2

[9] = system: DLD1; assay: Cell viability determination (MTT), DLD1; type: cell-based; details: Homo sapiens, DLD-1, DLD1, colorectal cancer, 48 hour incubation, read-out: Drug concentrations for 50% cell viability (IC50)
Source text: as §1, §2

[10] = system: Panc-1; assay: Cell viability determination (MTT), Panc-1; type: cell-based; details: Homo sapiens, Panc-1, pancreatic cancer, 48 hour incubation, read-out: Drug concentrations for 50% cell viability (IC50)
Source text: as §1, §2

[11] = system: Hela; assay: Cell viability determination (MTT), Hela; type: cell-based; details: Homo sapiens, cervical cancer, 48 hour incubation, read-out: Drug concentrations for 50% cell viability (IC50)
Source text: as §1, §2

[12] = system: Eca-109; assay: Cell viability determination (MTT), Eca-109; type: cell-based; details: Homo sapiens, Eca-109, esophageal cancer, 48 hour incubation, read-out: Drug concentrations for 50% cell viability (IC50)
Source text: as §1, §2

Molecule CC(=O)Oc1c2ccccc2c(OC(=O)CNC(=O)OC(C)(C)C)c2oc(C(C)=O)cc12 [compound IV, 2-acetyl-4-acetoxy-9-[(tert-butoxycarbonyl)amino]acetoxy-naphtho[2,3-b]furan] has an IC50 [1] of 250 to 500 nM, an IC50 [2] of 1220 nM and an IC50 [3] of 600 nM. It also gave an IC50 [4] of 1930 nM, an IC50 [5] of 250 to 500 nM and an IC50 [6] of 3260 nM. The “Degradation / detectable products after incubation in human plasma” value [7] was “the detectable products were compound XIII and partially degraded products”, the IC50 [8] was 420 nM and the IC50 [9] was 300 nM. The IC50 [10] was 870 nM, the IC50 [11] was 860 nM and the IC50 [12] was 1630 nM.
